Some test systems named below: A549 NSCLC; DU-145 prostate; HL-60(TB) leukemia; HOP-62 NSCLC; NCI-H460 lung; OVCAR-5 ovarian; SK-MEL-5 melanoma; SN12C renal; T-47D breast; UACC-62 melanoma.
Test in all cases: DTP human tumour cell line panel, 48 h

What is called GI50 is the concentration that inhibits growth by half. A word on the TGI: it is the concentration giving total growth inhibition. Low values mean more potent growth arrest, high ones less potent growth arrest.

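Test compounds were applied to cells in 96-well plates for 48 hours at 5 doses. The concentration for 50% growth inhibition is given as GI50. TGI: total growth inhibition.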

`COc1ccc(-c2nn(-c3ccc(NC(=O)Nc4ccc(Cl)c(Cl)c4)cc3)cc2-c2ccncc2)cc1Cl`: the GI50 in the test with A549 NSCLC is 1.56 µM; in the test with DU-145 prostate it was 3.97 µM; with HL-60(TB) leukemia it was 2.21 µM; in the test with HOP-62 NSCLC, 3.73 µM; in the test on NCI-H460 lung, 2.14 µM; with OVCAR-5 ovarian it was 2.8 µM. Also, the GI50 in the test with SK-MEL-5 melanoma was 2.26 µM; in the test with SN12C renal, 2.6 µM; in the test on T-47D breast, 3.24 µM; in the test on UACC-62 melanoma, 2.1 µM. The TGI with A549 NSCLC is above 100 µM; in the test on DU-145 prostate it was above 100 µM; with HL-60(TB) leukemia, 6.6 µM; in the test on HOP-62 NSCLC, above 100 µM; in the test with NCI-H460 lung it was 8.54 µM; in the test with OVCAR-5 ovarian, above 100 µM. Moreover, the concentration for total growth inhibition (TGI) is 5.96 µM with SK-MEL-5 melanoma, above 100 µM in the test on SN12C renal, above 100 µM in the test with T-47D breast and 7.33 µM with UACC-62 melanoma.

Consider `C[N+]1(C)CCOC(O)(c2ccccc2)C1` (centres undefined), for which the TGI in the test with A549 NSCLC, in the test with DU-145 prostate, with HL-60(TB) leukemia, with HOP-62 NSCLC, in the test with NCI-H460 lung and in the test on OVCAR-5 ovarian was above 100 µM throughout. The concentration for total growth inhibition (TGI) with SK-MEL-5 melanoma, in the test on SN12C renal, in the test on T-47D breast and with UACC-62 melanoma was above 100 µM throughout.

With `Cc1ccc(P(c2ccc(C)cc2)c2ccc(C)cc2)cc1`, the TGI in the test with A549 NSCLC was above 100 µM; with DU-145 prostate, 40.1 µM; in the test on HL-60(TB) leukemia, above 100 µM; in the test with NCI-H460 lung it was 36.5 µM; in the test on OVCAR-5 ovarian it was 61.1 µM; with SK-MEL-5 melanoma, 33.1 µM. The values for the TGI with SN12C renal, in the test on T-47D breast and with UACC-62 melanoma were 34.3 µM, above 100 µM and 52.3 µM, respectively.

Take `CCN(CC)C(=S)SC(=S)N(CC)CC`: the TGI in the test with A549 NSCLC, with DU-145 prostate, with HL-60(TB) leukemia, with HOP-62 NSCLC, in the test with NCI-H460 lung and in the test with OVCAR-5 ovarian was above 100 µM throughout. Moreover, the TGI with SK-MEL-5 melanoma was above 46.5 µM; with SN12C renal, above 100 µM; in the test on T-47D breast, above 100 µM; with UACC-62 melanoma, above 93.1 µM.

In the case of `CC(C)(C)C1(c2ccc(C3(c4ccccc4)Oc4ccccc4S3)[nH]2)Oc2ccccc2S1` (centres undefined), the TGI in the test on A549 NSCLC, in the test with HL-60(TB) leukemia, in the test on HOP-62 NSCLC, in the test on NCI-H460 lung, with OVCAR-5 ovarian and with SK-MEL-5 melanoma was above 100 µM each time. The TGI in the test on SN12C renal and with UACC-62 melanoma was above 100 µM in each case.

As to `O=Nc1ccc(O)c2ncccc12`, the concentration for total growth inhibition (TGI) was 30.4 µM in the test on A549 NSCLC; 65.9 µM in the test with DU-145 prostate; above 41.6 µM in the test on HL-60(TB) leukemia; 15 µM in the test with HOP-62 NSCLC; 12.8 µM with NCI-H460 lung; 32.5 µM in the test on OVCAR-5 ovarian. Also, the total growth inhibition concentration (TGI) in the test on SK-MEL-5 melanoma was determined as 19.7 µM; in the test with SN12C renal it was 25.2 µM; in the test with T-47D breast, 33.1 µM; in the test on UACC-62 melanoma, 2.34 µM.

In the case of `COC1/C=C\OC2(C)Oc3c(C)c(O)c4c(O)c(c(/C=N\OCCCc5ccccc5)c(O)c4c3C2=O)NC(=O)/C(C)=C\C=C/C(C)C(O)C(C)C(O)C(C)C(OC(C)=O)C1C` (centres undefined), the concentration for total growth inhibition (TGI) amounted to 12.9 µM in the test on A549 NSCLC; 15.7 µM in the test with DU-145 prostate; 5.38 µM with HL-60(TB) leukemia; 6.75 µM in the test on HOP-62 NSCLC; 15.6 µM with NCI-H460 lung; 20.4 µM with OVCAR-5 ovarian. Also, the TGI in the test on SK-MEL-5 melanoma stood at 3.55 µM; in the test with SN12C renal, 7.66 µM; with T-47D breast, 15.6 µM; with UACC-62 melanoma it was 10.1 µM.

For the molecule `N=C(N)c1ccc(-c2ccc(-c3cncc4ccccc34)s2)cc1F`, the GI50 is 1.86 µM with DU-145 prostate, 1.6 µM in the test with OVCAR-5 ovarian, 1.75 µM in the test with SK-MEL-5 melanoma and 1.85 µM with SN12C renal. The TGI is 3.45 µM in the test on DU-145 prostate, 3.1 µM with OVCAR-5 ovarian, 3.26 µM in the test on SK-MEL-5 melanoma and 3.65 µM in the test on SN12C renal.

For the molecule `C=C(C)C(=O)OC1C(C(C)CCCO)=C(CO)CC2OC(=O)C(=C)C21` (centres undefined), the TGI was 63.7 µM in the test on A549 NSCLC; 27.8 µM in the test with DU-145 prostate; above 100 µM with HL-60(TB) leukemia; above 100 µM in the test on HOP-62 NSCLC; 37.8 µM with NCI-H460 lung; 54.3 µM in the test on OVCAR-5 ovarian. The TGI in the test on SK-MEL-5 melanoma turned out to be 28.5 µM; in the test with SN12C renal, 32.8 µM; in the test with T-47D breast, 45.5 µM; in the test with UACC-62 melanoma, 31.9 µM.

Regarding `Nc1ccc(OCC(O)N2C(=O)c3ccccc3C2=O)cc1` (centres undefined), the TGI with A549 NSCLC, with DU-145 prostate, in the test on HL-60(TB) leukemia, in the test with HOP-62 NSCLC, in the test on NCI-H460 lung and in the test with OVCAR-5 ovarian was above 100 µM in each case. Further, the total growth inhibition concentration (TGI) in the test on SK-MEL-5 melanoma, in the test on T-47D breast and with UACC-62 melanoma was above 100 µM in each case.

(Values after PubChem BioAssay (NCI).)
